Results from ChEMBL document CHEMBL1201862, “PubChem BioAssay data set” (2004).
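Grown in 96-well plates, cells were treated for 48 hours with each compound at five concentrations. Insufficient inhibition: endpoint recorded as highest concentration tested. The concentration for 50% growth inhibition is given as GI50.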 Active and inactive are the calls of the source. Rule as the data show it: active = GI50 up to about 1.1 µM and inactive = higher.

Key:
Assay in all cases: NCI anticancer screen, dose series, 48 h
CCRF-CEM = test system: CCRF-CEM
A498 = test system: A498
BT-549 = test system: BT-549
SF-295 = test system: SF-295
IGROV-1 = test system: IGROV-1
Hs-578T = test system: Hs-578T
HOP-92 = test system: HOP-92
SF-268 = test system: SF-268
SR = test system: SR
T47D = test system: T47D
OVCAR-3 = test system: OVCAR-3
SK-MEL-2 = test system: SK-MEL-2
SK-MEL-5 = test system: SK-MEL-5
PC-3 = test system: PC-3
M14 = test system: M14
KM12 = test system: KM12
CAKI-1 = test system: CAKI-1
COLO 205 = test system: COLO 205
SK-OV-3 = test system: SK-OV-3

Structure (SMILES)	GI50 (CCRF-CEM)	GI50 (A498)	GI50 (BT-549)	GI50 (SF-295)	GI50 (IGROV-1)	GI50 (Hs-578T)	GI50 (HOP-92)	GI50 (SF-268)	GI50 (SR)	GI50 (T47D)	GI50 (OVCAR-3)	GI50 (SK-MEL-2)	GI50 (SK-MEL-5)	GI50 (PC-3)	GI50 (M14)	GI50 (KM12)	GI50 (CAKI-1)	GI50 (COLO 205)	GI50 (SK-OV-3)
CN(C)CC1CCC/C(=C\c2ccc(OC(=O)/C=C/c3ccc(Cl)c(Cl)c3)cc2)C1=O (centres undefined)	0.597 µM (active)	7.89 µM (inactive)	3.42 µM (inactive)	7.11 µM (inactive)	1.47 µM (inactive)	4.21 µM (inactive)	1.79 µM (inactive)	9.29 µM (inactive)	1.21 µM (inactive)	2.44 µM (inactive)	3.48 µM (inactive)	15.9 µM (inactive)	4.09 µM (inactive)	3.33 µM (inactive)	5.68 µM (inactive)	1.61 µM (inactive)	2.26 µM (inactive)	1.83 µM (inactive)	37.3 µM (inactive)
S=C1N=C(Cl)/C(=C\c2ccco2)N1	> 100 µM (inactive)	> 100 µM (inactive)	> 100 µM (inactive)	> 100 µM (inactive)	> 100 µM (inactive)	> 100 µM (inactive)	> 100 µM (inactive)	> 100 µM (inactive)	> 79.6 µM (inactive)	> 100 µM (inactive)	> 100 µM (inactive)	> 100 µM (inactive)	> 100 µM (inactive)	> 100 µM (inactive)	> 100 µM (inactive)	> 100 µM (inactive)	> 100 µM (inactive)	> 100 µM (inactive)	> 100 µM (inactive)
O=C(Nc1ccccc1)c1cc2c(cc1Cl)Sc1nccn1S2(=O)=O	17.3 µM (inactive)	18.5 µM (inactive)	19.7 µM (inactive)	41.5 µM (inactive)	20.2 µM (inactive)	22.8 µM (inactive)	2.58 µM (inactive)	25.2 µM (inactive)	14.8 µM (inactive)	19.1 µM (inactive)	21.4 µM (inactive)	28.6 µM (inactive)	12.9 µM (inactive)	20.1 µM (inactive)	16 µM (inactive)	18.6 µM (inactive)	0.266 µM (active)	15.3 µM (inactive)	76.4 µM (inactive)
Fc1ccc(/C=C2\COCC3=C2NC(=S)NC3c2ccc(F)cc2)cc1 (centres undefined)	19 µM (inactive)	16 µM (inactive)	19 µM (inactive)	18.7 µM (inactive)	24.9 µM (inactive)	24.8 µM (inactive)	18.7 µM (inactive)	17.7 µM (inactive)	19 µM (inactive)	26.1 µM (inactive)	17.8 µM (inactive)	15 µM (inactive)	19.4 µM (inactive)	17.3 µM (inactive)	16.4 µM (inactive)	24.4 µM (inactive)	31.1 µM (inactive)	20.2 µM (inactive)	31 µM (inactive)
O=[N+]([O-])/C(C(Cl)=C(Cl)Cl)=C(/Sc1ccccc1)N1CCOCC1	1.83 µM (inactive)	14.6 µM (inactive)	4.76 µM (inactive)	19.5 µM (inactive)	3.13 µM (inactive)	15.6 µM (inactive)	2.34 µM (inactive)	4.46 µM (inactive)	2.12 µM (inactive)	3.02 µM (inactive)	2.69 µM (inactive)	5.14 µM (inactive)	3 µM (inactive)	6.01 µM (inactive)	3 µM (inactive)	13.4 µM (inactive)	6.27 µM (inactive)	3.88 µM (inactive)	34.8 µM (inactive)
CC1=NC(C)(COC(=O)C2(C)NC(C)(CO)CO2)COC1=O (centres undefined)	> 100 µM (inactive)	> 100 µM (inactive)	> 100 µM (inactive)	> 100 µM (inactive)	> 100 µM (inactive)	> 100 µM (inactive)	> 100 µM (inactive)	> 100 µM (inactive)	> 33 µM (inactive)	> 100 µM (inactive)	> 100 µM (inactive)	> 100 µM (inactive)	> 100 µM (inactive)	> 100 µM (inactive)	> 100 µM (inactive)	> 100 µM (inactive)	> 100 µM (inactive)	> 100 µM (inactive)	> 100 µM (inactive)
Cc1ccc(S(=O)(=O)OC2CN3CCC2CC3)cc1 (centres undefined)	15.5 µM (inactive)	> 100 µM (inactive)	> 100 µM (inactive)	> 100 µM (inactive)	> 100 µM (inactive)	> 100 µM (inactive)	> 100 µM (inactive)	> 100 µM (inactive)	> 100 µM (inactive)	> 100 µM (inactive)	> 100 µM (inactive)	> 100 µM (inactive)	> 100 µM (inactive)	> 100 µM (inactive)	> 100 µM (inactive)	> 100 µM (inactive)	> 100 µM (inactive)	> 100 µM (inactive)	> 100 µM (inactive)
Cn1c(=O)c2c(n(C)c1=O)n1c(=O)c3ccccc3nc1n2C	> 100 µM (inactive)	> 100 µM (inactive)	> 100 µM (inactive)	38 µM (inactive)	> 100 µM (inactive)	59.4 µM (inactive)	> 100 µM (inactive)	72.3 µM (inactive)	0.0237 µM (active)	> 100 µM (inactive)	> 100 µM (inactive)	> 100 µM (inactive)	> 100 µM (inactive)	> 100 µM (inactive)	> 100 µM (inactive)	> 100 µM (inactive)	> 100 µM (inactive)	> 100 µM (inactive)	> 100 µM (inactive)
O=C(CCCc1cccc2[nH]c3c(c12)CN(Cc1ccccc1)CC3)c1ccc(F)cc1	30.4 µM (inactive)	> 100 µM (inactive)	> 100 µM (inactive)	> 100 µM (inactive)	> 100 µM (inactive)	99.5 µM (inactive)	> 100 µM (inactive)	> 100 µM (inactive)	13 µM (inactive)	15.6 µM (inactive)	> 100 µM (inactive)	> 100 µM (inactive)	18.2 µM (inactive)	> 43.6 µM (inactive)	42 µM (inactive)	39.1 µM (inactive)	> 100 µM (inactive)	14.4 µM (inactive)	> 47.1 µM (inactive)
Cc1ccc(C(=O)/C=C2/Nc3ccc([N+](=O)[O-])cc3N/C2=C/C(=O)c2ccc(C)cc2)cc1	88.3 µM (inactive)	44.7 µM (inactive)	> 100 µM (inactive)	41.3 µM (inactive)	42.5 µM (inactive)	23.2 µM (inactive)	61.4 µM (inactive)	52.4 µM (inactive)	54.2 µM (inactive)	> 100 µM (inactive)	> 100 µM (inactive)	66.5 µM (inactive)	> 100 µM (inactive)	92.3 µM (inactive)	> 100 µM (inactive)	> 100 µM (inactive)	87.5 µM (inactive)	> 100 µM (inactive)	41.1 µM (inactive)
Cc1ccc(S(=O)(=O)n2cc(C#N)c(C#N)c2)cc1	30.2 µM (inactive)	24.7 µM (inactive)	20.6 µM (inactive)	23 µM (inactive)	31.1 µM (inactive)	24.7 µM (inactive)	31 µM (inactive)	26.6 µM (inactive)	24.4 µM (inactive)	26.4 µM (inactive)	22.5 µM (inactive)	24.3 µM (inactive)	21.3 µM (inactive)	28.9 µM (inactive)	22.4 µM (inactive)	31 µM (inactive)	26.1 µM (inactive)	28.6 µM (inactive)	19.1 µM (inactive)
